Key:
JAK1 = JAK1 (Homo sapiens, UniProt P23458); test: Kinase activity test (γ33P-ATP isotopic method), JAK1; format: biochemical
Method: (§1) This experiment adopted a γ^33p-ATP isotopic test method to test the inhibitory effect of a compound on kinases JAK1, JAK2, JAK3 and TYK2, and obtained a half inhibitory concentration IC50 of the compound for inhibiting activity of the kinase.
(§2) 20 mM 4-hydroxyethylpiperazine ethanesulfonic acid buffer (Hepes, pH 7.5), 10 mM magnesium chloride (MgCl2), 1 mM ethylene glycol diethyl ether diamine tetraacetic acid (EGTA), 0.02% dodecyl polyethylene glycol ether (Brij35), 0.02 mg/ml bovine serum albumin (BSA), 0.1 mM sodium vanadate (Na3VO4), 2 mM dithiothreitol (DTT), and 1% dimethylsulfoxide (DMSO).
(§3) A compound is dissolved with 100% DMSO to a specific concentration, and then subjected to gradient dilution by an automatic sampling device to obtain the samples to be tested with different concentrations (DMSO solutions).
(§4) 3.1 diluting the reaction substrate with the basic reaction buffer;
(§5) 3.2 adding the kinase into the substrate solution, and gently mixing well;
(§6) 3.3 adding, by the automatic sampling system, the 100% DMSO diluted compounds with different concentrations into the kinase solution, and incubating for 20 min at room temperature; and
(§7) 3.4 adding ^33p-ATP (10 μM, 10 μCi/μl) at room temperature to initiate the kinase reaction for a duration of 2 h.
(§8) The unreacted ATP and the reaction-generated […] in the reaction were removed by an ion exchange filtering system, and then the amount of radioactivity of ^33p isotope in the substrate was detected.
(§9) According to the amount of radioactivity, the kinase activities in the systems added with the inhibitors of different concentrations were calculated, to obtain the inhibitors' effects of the compounds of different concentrations on the kinase activity; and fitting was performed with graphpad prism to obtain the inhibitory IC50 values of the compounds.

JAK2 = JAK2 (Homo sapiens, UniProt O60674); test: Kinase activity test (γ33P-ATP isotopic method), JAK2; format: biochemical; conditions: 33P-ATP 10 μM, 2 h reaction
Method: as §1, §2, §3, §4, §5, §6, §7, §8, §9

JAK3 = biological target: T1, JAK3 (Homo sapiens, UniProt P52333); test: Kinase activity test (γ33P-ATP isotopic method), JAK3; format: biochemical; conditions: 33P-ATP 10 μM, 2 h reaction
T1 sequence (P52333 1-1124): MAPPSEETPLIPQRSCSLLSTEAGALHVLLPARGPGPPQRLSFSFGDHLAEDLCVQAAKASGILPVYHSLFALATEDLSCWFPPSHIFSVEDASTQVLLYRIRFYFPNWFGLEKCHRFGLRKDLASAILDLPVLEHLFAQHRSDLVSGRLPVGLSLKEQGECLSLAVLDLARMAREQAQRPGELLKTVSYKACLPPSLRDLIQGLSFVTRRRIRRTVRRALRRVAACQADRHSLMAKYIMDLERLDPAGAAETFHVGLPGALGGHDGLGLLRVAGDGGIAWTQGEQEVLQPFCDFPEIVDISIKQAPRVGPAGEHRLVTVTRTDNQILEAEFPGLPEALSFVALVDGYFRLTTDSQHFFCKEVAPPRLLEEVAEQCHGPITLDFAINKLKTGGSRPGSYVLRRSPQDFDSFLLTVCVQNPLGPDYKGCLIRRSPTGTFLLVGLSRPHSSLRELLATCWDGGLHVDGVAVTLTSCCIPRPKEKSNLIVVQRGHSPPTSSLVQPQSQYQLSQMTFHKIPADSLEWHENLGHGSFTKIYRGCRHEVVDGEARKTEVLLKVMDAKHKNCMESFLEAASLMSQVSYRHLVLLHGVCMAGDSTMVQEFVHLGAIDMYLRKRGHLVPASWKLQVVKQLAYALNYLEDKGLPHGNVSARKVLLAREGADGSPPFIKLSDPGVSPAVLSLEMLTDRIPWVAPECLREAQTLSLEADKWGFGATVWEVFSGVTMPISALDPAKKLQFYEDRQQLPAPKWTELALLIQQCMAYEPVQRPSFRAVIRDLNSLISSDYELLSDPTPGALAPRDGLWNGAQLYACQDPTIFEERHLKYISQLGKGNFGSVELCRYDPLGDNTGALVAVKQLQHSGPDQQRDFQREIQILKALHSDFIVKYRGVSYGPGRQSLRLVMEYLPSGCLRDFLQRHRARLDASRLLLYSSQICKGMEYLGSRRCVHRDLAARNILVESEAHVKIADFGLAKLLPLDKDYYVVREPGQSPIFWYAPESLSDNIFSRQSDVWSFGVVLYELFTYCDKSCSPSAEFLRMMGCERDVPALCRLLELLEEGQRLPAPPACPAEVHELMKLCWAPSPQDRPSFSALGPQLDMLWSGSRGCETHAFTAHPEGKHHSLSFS
Method: as §1, §2, §3, §4, §5, §6, §7, §8, §9

TYK2 = TYK2 (Homo sapiens, UniProt P29597); test: Kinase activity test (γ33P-ATP isotopic method), TYK2; format: biochemical; conditions: 33P-ATP 10 μM, 2 h reaction
Method: as §1, §2, §3, §4, §5, §6, §7, §8, §9

[1] = Liver microsome test (metabolic stability); format: in vitro ADME, human
Method: In an incubation system with a total volume of 250 μL, an incubation solution of hum an liver microsomes containing 0.5 mg/mL protein was formulated with a 50 mmol/L PBS buffer (pH=7.4). Before the start of incubation, 2.5 μL of a 100 μmol/L compound to be tested was mixed with 197.5 μL of the above incubation buffer, pre-incubated for 5 min in a 37° C. water bath, and then added with 50 μL of a reducing coenzyme II solution (5 mmol/L) that was likewise pre-incubated for 5 min to start a reaction (in the reaction system, the protein content of liver microsomes from various species was 0.5 g/L, and the final concentration of the compound to be tested was 1 μmol/L), incubated in a 37° C. water bath with shaking, and taken out at 0, 5, 15, 30, and 60 min respectively. 600 μL of a methanol solution of mixed positive and negative internal standards with internal standards Terfenadine (positive ion internal standard, 25 ng/mL) and Tolbutamide (negative ion internal standard, 50 ng/mL) was immediately added to terminate the reaction. The incubation solution after termination was shaken for 2 min and centrifuged (4° C., 16000 r/min) for 10 min, and the supernatant was taken for LC-MS/MS detection to quantitatively analyze the remaining amount of the parent drug. (DMSO=0.1%).
The concentration of the compound at 0 mi incubation was regarded as 100%, and the concentrations at other incubation time points were converted into the remaining percentages. The natural logarithm of the remaining percentage at each time point was linearly regressed against the incubation time, and the slope k was calculated. According to the formula T1/2=−0.693/k, the in vitro half-life was calculated. Clearance in liver microsomes (CLint (μL/min/mg protein)=Ln (2)*1000/T1/2 (min/Protein Conc (mg/ml)).

[2] = human liver microsomes, conclusion from Table 2

Chain of JAK1 (P23458 whole entry): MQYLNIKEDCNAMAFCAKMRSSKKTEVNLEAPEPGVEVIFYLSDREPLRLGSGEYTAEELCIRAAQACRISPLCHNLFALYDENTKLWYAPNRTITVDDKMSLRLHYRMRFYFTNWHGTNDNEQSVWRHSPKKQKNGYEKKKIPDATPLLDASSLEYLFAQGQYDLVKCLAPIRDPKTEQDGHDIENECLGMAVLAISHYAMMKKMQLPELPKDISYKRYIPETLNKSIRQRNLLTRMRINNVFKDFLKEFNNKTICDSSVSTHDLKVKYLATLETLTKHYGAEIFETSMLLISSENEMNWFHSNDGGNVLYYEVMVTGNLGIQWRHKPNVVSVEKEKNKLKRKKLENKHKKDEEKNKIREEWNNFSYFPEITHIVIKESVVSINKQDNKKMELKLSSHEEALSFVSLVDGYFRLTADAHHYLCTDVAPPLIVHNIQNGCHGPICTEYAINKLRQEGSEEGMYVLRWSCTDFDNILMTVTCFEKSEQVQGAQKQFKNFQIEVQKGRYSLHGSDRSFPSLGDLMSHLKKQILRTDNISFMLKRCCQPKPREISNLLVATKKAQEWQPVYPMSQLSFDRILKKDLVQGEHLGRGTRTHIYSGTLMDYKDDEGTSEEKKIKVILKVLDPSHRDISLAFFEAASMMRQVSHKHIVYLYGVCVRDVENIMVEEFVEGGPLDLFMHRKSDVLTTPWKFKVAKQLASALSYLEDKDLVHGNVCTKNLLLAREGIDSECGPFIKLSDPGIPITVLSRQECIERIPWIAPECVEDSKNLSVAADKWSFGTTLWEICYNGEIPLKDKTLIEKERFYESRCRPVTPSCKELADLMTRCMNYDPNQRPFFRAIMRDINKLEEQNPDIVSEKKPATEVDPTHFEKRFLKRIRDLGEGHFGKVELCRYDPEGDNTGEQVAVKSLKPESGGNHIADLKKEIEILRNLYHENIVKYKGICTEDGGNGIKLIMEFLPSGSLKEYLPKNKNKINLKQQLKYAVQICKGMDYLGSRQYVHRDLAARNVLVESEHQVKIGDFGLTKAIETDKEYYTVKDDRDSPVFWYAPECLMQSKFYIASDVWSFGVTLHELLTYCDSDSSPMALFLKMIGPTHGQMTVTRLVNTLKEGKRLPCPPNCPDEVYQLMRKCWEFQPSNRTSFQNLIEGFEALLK
Chain of JAK2 (O60674 whole entry): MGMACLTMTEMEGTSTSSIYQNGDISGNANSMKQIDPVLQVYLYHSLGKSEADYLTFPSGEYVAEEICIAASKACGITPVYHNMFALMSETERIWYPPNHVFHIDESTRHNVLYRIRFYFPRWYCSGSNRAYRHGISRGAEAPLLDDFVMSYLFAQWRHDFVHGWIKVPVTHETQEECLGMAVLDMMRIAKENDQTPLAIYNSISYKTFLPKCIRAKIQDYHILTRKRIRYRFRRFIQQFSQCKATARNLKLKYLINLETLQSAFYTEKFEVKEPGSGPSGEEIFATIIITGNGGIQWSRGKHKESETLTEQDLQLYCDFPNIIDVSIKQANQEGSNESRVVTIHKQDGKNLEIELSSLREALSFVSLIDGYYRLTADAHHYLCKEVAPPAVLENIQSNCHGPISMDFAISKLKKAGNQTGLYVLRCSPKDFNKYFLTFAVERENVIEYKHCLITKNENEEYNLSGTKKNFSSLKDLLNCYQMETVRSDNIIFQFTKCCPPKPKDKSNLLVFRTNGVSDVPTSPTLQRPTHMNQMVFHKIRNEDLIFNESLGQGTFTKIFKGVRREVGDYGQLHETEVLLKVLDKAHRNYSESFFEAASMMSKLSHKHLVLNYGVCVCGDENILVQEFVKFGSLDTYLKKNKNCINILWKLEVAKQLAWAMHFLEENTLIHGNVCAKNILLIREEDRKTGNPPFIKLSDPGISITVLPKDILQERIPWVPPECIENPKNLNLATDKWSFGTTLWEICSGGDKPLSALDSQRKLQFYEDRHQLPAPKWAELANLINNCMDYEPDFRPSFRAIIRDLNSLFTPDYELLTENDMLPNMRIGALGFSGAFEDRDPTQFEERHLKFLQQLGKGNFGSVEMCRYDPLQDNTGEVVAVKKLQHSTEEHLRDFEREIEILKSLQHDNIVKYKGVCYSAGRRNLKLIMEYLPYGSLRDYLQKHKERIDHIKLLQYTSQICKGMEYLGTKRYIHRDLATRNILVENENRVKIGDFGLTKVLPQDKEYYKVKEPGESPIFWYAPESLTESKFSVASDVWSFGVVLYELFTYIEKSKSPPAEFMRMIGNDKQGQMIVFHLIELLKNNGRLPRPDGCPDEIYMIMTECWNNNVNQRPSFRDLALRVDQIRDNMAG
Chain of TYK2 (P29597 whole entry): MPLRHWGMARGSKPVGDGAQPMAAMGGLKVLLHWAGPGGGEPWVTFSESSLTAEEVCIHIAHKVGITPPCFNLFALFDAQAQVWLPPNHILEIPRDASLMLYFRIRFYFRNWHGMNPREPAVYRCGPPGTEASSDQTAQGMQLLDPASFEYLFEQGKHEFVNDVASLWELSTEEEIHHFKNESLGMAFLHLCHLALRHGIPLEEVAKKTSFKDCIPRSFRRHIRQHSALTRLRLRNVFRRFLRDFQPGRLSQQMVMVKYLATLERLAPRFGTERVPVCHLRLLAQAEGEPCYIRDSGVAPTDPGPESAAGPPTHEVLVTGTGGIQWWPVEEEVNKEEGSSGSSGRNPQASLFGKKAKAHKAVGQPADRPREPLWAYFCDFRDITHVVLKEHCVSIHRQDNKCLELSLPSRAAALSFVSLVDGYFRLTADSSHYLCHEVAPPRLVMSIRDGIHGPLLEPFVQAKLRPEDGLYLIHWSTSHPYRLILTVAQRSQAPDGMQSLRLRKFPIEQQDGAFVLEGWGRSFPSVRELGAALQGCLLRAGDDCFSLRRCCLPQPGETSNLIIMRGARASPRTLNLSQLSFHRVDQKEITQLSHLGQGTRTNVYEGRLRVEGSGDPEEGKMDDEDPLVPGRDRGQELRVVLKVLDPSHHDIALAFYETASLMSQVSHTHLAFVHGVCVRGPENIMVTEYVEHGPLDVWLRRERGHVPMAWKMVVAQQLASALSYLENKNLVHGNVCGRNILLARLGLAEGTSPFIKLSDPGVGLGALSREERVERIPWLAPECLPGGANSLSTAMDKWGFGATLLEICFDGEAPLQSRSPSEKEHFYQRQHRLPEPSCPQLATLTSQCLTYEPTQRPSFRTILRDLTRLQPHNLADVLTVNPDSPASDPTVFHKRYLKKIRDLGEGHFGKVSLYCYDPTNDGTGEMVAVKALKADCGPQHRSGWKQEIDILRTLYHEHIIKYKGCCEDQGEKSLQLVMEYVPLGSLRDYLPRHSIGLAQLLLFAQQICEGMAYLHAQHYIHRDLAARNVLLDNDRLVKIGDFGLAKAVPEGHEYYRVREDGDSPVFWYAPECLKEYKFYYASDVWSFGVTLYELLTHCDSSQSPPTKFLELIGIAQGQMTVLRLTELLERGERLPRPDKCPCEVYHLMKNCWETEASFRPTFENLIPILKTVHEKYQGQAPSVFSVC

Compound: NC(=O)c1cnc2[nH]ccc2c1NN1CCC[C@H](C(=O)NCC(F)F)C1 [Example 2, (S)-4-(3-(2,2-difluoroethylcarbamoyl)piperidine-1-amino)-1H-7-azaindole-5-carboxamide]
- IC50 (JAK1; 33P-ATP 10 μM, 2 h reaction): 0.15 nM
- activity in inhibiting the JAK1 kinase compared with Tofacitinib (in words) (JAK1; conclusion from Table 1): higher activity in inhibiting the JAK1 kinase than the positive drug control Tofacitinib
- IC50 (JAK2): 3.69 nM
- IC50 (JAK3): 3.1 nM
- IC50 (TYK2): 1.49 nM
- Remaining % (60 min) ([1]; human liver microsomes 0.5 mg/mL protein, compound 1 μmol/L, 37° C., 60 min): 91.9%
- metabolic half-life in liver microsomes compared with Tofacitinib (in words) [1, 2]: significantly superior to the positive drug Tofacitinib
- metabolic stability in liver microsomes (in words) [1, 2]: excellent metabolic activity in liver
- half-life at 1 μmol/L ([1]; pH 7.4, human liver microsomes 0.5 mg/mL protein, compound 1 μmol/L, 37° C.): 330 min
- microsomal CLint at 1 μmol/L ([1]; pH 7.4, human liver microsomes 0.5 mg/mL protein, compound 1 μmol/L, 37° C., read-out: Clint (μL/min/mg protein)): 4.2 µL/min/mg
